The record followed here is PMC7180638, “Synthesis of Pyrrolidine Monocyclic Analogues of Pochonicine and Its Stereoisomers: Pursuit of Simplified Structures and Potent β-N-Acetylhexosaminidase Inhibition” (Molecules, 2020).

Where a name gives a salt, the structure may show the parent alone. Read-outs that look alike come from different tables or passages of the source.

What all share (format): biochemical
The target in assay [1] is T1, β-Galactosidase (Bovine liver) (Bos taurus, UniProt F1MNT6).
T1 sequence (F1MNT6 1-469): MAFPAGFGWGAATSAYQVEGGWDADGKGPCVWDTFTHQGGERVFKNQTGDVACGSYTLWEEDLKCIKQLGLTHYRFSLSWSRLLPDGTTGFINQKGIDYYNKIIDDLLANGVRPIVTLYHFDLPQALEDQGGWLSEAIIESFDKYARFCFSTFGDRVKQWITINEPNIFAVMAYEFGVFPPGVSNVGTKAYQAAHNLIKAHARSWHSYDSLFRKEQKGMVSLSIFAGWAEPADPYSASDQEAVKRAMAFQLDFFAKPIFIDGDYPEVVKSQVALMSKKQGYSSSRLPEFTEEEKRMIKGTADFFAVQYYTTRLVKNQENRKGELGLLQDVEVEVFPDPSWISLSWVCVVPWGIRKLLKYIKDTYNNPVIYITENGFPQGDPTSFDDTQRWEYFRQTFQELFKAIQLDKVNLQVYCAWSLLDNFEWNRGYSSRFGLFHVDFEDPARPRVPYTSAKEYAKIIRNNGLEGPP
Description: β-Galactosidase (bovine liver) inhibition. As for the experimental part: (§1) With rat intestinal maltase as an exception, other enzymes were purchased from Sigma-Aldrich Chemical Co. (St. Louis, MO, USA). Brush border membranes prepared from rat small intestine according to the method of Kessler et al. were assayed at pH 6.8 for rat intestinal maltase using maltose. The released D-glucose was determined colorimetrically using the Glucose CII-test Wako (Wako Pure Chemical Ind.; Osaka, Japan). Other glycosidase activities were determined using an appropriate p-nitrophenyl glycoside as substrate in a buffer solution at the optimal pH value of each enzyme. The reaction was stopped by adding 400 mM Na2CO3. The released p-nitrophenol was measured spectrometrically at 400 nm.

The target in assay [2] is T2, α,α-Trehalase (Porcine kidney) (Sus scrofa, UniProt I3LIR5).
T2 construct: purchased Sigma-Aldrich Chemical Co; host or cells: porcine kidney
T2 sequence (I3LIR5 24-583): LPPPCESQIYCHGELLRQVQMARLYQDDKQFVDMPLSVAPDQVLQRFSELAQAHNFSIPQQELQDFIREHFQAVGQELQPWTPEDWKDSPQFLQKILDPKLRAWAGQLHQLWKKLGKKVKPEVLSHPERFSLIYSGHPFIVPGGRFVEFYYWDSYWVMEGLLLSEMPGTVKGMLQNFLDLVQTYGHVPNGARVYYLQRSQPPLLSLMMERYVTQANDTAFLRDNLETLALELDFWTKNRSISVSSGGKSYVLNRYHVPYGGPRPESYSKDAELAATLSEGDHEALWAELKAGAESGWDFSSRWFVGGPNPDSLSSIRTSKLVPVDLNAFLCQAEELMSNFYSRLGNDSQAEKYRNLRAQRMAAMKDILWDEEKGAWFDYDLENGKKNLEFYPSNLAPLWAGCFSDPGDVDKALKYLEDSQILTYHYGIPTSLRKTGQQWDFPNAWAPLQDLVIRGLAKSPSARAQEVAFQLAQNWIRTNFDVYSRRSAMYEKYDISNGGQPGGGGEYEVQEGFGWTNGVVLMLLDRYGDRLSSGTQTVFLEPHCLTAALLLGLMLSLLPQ
Description: α,α-Trehalase (porcine kidney) inhibition. As for the experimental part:
as §1

Assay [3] deals with β-Glucosidase (Bovine liver). Description: β-Glucosidase (bovine liver) inhibition. On the procedure: as §1
For assay [4], the target named is β-N-Acetylgalactosaminidase (HL60). Description: β-N-Acetylgalactosaminidase (HL60) inhibition. On the procedure:
as §1

The target in assay [5] is T3, Amyloglucosidase (A. niger) (Aspergillus niger, UniProt P69328).
T3 construct: purchased Sigma-Aldrich Chemical Co
T3 sequence (P69328 25-640): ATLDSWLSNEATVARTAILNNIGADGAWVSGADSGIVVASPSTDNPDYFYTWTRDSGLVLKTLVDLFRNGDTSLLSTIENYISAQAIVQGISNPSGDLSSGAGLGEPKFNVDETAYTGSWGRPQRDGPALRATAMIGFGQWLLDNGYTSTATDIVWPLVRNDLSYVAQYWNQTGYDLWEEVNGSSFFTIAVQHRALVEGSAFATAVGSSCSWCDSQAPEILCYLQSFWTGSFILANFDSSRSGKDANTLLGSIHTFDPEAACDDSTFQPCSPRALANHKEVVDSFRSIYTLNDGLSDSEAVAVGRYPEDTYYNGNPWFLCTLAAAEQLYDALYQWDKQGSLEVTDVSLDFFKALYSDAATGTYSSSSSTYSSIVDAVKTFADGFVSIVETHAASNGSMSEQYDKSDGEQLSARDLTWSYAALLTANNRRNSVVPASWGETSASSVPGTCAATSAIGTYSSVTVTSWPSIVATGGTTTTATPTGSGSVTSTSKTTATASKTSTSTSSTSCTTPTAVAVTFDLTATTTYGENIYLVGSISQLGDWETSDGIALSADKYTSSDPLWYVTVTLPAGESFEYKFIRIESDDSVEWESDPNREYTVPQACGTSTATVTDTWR
In words: Amyloglucosidase (A. niger) inhibition. On the procedure:
as §1

Assay [6] has as its target T4, α-Mannosidase (Jack bean) (Canavalia ensiformis, UniProt C0HJB3).
T4 construct: purchased Sigma-Aldrich Chemical Co
T4 sequence (C0HJB3 1-981): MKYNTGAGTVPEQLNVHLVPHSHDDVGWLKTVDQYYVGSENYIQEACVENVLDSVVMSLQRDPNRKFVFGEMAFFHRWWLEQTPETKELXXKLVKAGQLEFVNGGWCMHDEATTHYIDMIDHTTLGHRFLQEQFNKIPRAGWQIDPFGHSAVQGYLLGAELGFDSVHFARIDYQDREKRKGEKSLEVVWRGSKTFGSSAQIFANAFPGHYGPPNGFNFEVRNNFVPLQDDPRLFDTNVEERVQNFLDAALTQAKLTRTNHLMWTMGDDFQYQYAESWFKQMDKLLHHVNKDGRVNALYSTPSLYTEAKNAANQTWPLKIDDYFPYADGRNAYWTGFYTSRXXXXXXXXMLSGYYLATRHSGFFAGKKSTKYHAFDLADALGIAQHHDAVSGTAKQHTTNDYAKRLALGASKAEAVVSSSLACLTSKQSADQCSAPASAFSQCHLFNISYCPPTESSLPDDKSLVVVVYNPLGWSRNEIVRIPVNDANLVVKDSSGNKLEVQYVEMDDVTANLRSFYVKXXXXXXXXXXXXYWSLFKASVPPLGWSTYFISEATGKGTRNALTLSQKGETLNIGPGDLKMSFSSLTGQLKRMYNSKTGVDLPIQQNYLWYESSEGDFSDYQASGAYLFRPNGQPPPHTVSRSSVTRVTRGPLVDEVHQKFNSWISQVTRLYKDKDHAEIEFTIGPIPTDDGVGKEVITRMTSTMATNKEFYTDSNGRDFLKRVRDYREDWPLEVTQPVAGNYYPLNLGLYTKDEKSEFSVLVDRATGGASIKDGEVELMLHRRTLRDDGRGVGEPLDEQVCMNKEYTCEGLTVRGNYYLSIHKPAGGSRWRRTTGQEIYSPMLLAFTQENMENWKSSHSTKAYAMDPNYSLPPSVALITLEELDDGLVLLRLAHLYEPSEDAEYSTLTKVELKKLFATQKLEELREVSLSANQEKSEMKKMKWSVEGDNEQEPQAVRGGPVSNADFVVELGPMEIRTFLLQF
Description: α-Mannosidase (Jack bean) inhibition. On the procedure: as §1

Assay [7] addresses β-N-Acetylhexosaminidase (HL60). In words: β-N-Acetylhexosaminidase (HL60) inhibition. To be noted: for IC50: β-N-Acetylhexosaminidase (β-GlcNAcase); for Inhibition % at 1000 μM: β-N-Acetylhexosaminidase. On the procedure: as §1
In assay [8] the target is α-L-Rhamnosidase (P. decumbens). Description: α-L-Rhamnosidase (P. decumbens) inhibition. On the procedure: as §1
The target of assay [9] is T5, α-Glucosidase (Rice) (Oryza sativa subsp. japonica, UniProt Q653V7).
T5 construct: purchased Sigma-Aldrich Chemical Co
T5 sequence (Q653V7 34-885): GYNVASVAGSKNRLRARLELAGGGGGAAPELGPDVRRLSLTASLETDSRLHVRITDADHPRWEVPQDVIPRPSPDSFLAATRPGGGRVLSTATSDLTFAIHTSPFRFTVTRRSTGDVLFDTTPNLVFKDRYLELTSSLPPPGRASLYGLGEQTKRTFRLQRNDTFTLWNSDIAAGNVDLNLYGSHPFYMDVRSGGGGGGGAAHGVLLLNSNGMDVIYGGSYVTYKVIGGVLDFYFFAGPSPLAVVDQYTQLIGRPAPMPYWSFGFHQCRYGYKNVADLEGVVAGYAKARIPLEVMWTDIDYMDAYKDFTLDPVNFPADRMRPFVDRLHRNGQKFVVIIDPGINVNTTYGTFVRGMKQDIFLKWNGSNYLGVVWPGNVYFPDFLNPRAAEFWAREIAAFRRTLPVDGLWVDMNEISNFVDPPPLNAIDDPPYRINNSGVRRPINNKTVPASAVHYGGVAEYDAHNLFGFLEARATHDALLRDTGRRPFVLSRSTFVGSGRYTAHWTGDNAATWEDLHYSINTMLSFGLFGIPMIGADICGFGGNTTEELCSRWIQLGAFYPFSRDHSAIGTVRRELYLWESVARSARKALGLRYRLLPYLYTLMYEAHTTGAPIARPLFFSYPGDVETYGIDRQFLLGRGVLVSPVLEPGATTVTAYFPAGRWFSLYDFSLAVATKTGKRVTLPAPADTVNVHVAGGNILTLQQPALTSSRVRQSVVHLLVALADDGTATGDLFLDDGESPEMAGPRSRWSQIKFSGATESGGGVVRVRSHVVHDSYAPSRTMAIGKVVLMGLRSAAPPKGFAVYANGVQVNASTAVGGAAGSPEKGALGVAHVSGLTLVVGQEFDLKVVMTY
Description: α-Glucosidase (rice) inhibition. On the procedure:
as §1

Assay [10] concerns the target Rat intestinal maltase. In words: Rat intestinal maltase inhibition. To be noted: α-Glucosidase. On the procedure:
as §1

Assay [11] addresses β-Glucosidase (Almond). In words: β-Glucosidase (almond) inhibition. On the procedure: as §1
Setting [12] is: 1000 μM, read-out: Inhibition % at 1000 μM.

For `CC(=O)NC[C@@H]1N[C@@H](CO)[C@@H](O)[C@H]1O` [C-10, 1-N-acetylamino-2,5-imino-1,2,5-trideoxy-L-altritol hydrochloride], the inhibition at 1000 µM in [1] (setting [12]) was 1.3%; in assay [1] (read-out: IC50), below 50%; in [2] (setting [12]) it was 0%; in [2] (read-out: IC50), below 50%; in assay [5] (setting [12]), 1.9%; in assay [5] (read-out: IC50), below 50%. The inhibition at 1000 µM in assay [6] (setting [12]) is 0.4%; in assay [6] (read-out: IC50) it was below 50%; in assay [9] (setting [12]), 18.2%; in assay [9] (read-out: IC50) it was below 50%. The IC50 entry in assay [3], in assay [4], in assay [7], in assay [8], in [10] and in assay [11] was “NI (No Inhibition (less than 50% at 1000 μM))” each time. For the same compound, the “Inhibition % at 1000 μM” value in assay [3] is 1.0%; in [4], 1.4%; in assay [7] it was 3.9%; in [8], 3.6%; in [10] it was 35.4%; in [11] it was 0%.

Take `CC(=O)NC[C@@H]1N[C@H](CO)[C@@H](O)[C@H]1O` [H-10, 1-N-acetylamino-2,5-imino-1,2,5-trideoxy-L-allitol hydrochloride]: the inhibition at 1000 µM is 3.6% in assay [1] (setting [12]); below 50% in assay [1] (read-out: IC50); 40.9% in assay [2] (setting [12]); below 50% in [2] (read-out: IC50); 8.3% in assay [5] (setting [12]); below 50% in assay [5] (read-out: IC50). Also, the inhibition at 1000 µM in assay [6] (setting [12]) was 9.5%; in assay [6] (read-out: IC50), below 50%; in assay [9] (setting [12]) it was 5.6%; in assay [9] (read-out: IC50), below 50%. Also, the IC50 entry in [3], in [4], in assay [7], in assay [8], in [10] and in assay [11] was “NI (No Inhibition (less than 50% at 1000 μM))” throughout. The “Inhibition % at 1000 μM” value in assay [3] was found to be 1.7%; in assay [4], 5.3%; in assay [7], 0.3%; in assay [8], 7.7%; in [10], 13.6%; in [11], 17.1%.

For the compound `CC(=O)NC[C@H]1N[C@@H](CO)[C@H](O)[C@@H]1O` [G-10, 1-N-acetylamino-2,5-imino-1,2,5-trideoxy-D-allitol hydrochloride], the inhibition at 1000 µM in assay [1] (setting [12]) is 2.9%; in assay [1] (read-out: IC50), below 50%; in assay [2] (setting [12]) it was 5.6%; in assay [2] (read-out: IC50) it was below 50%; in assay [5] (setting [12]), 7.6%; in [5] (read-out: IC50) it was below 50%. Moreover, the inhibition at 1000 µM in assay [6] (setting [12]) is 4%; in assay [6] (read-out: IC50) it was below 50%; in assay [9] (setting [12]), 0%; in assay [9] (read-out: IC50), below 50%. The IC50 entry in assay [3], in assay [4], in [7], in assay [8], in [10] and in assay [11] was “NI (No Inhibition (less than 50% at 1000 μM))” each time. The “Inhibition % at 1000 μM” value worked out at 0% in [3]; 15.9% in assay [4]; 18.8% in assay [7]; 9.5% in [8]; 16.0% in [10]; 15.3% in assay [11].

As to `CC(=O)NC[C@H]1N[C@H](CO)[C@H](O)[C@H]1O` [F-10b, 1-N-acetylamino-2,5-imino-1,2,5-trideoxy-D-iditol hydrochloride], the inhibition at 1000 µM in assay [1] (setting [12]) is 4.2%; in assay [1] (read-out: IC50) it was below 50%; in assay [2] (setting [12]), 0%; in [2] (read-out: IC50), below 50%; in assay [5] (setting [12]), 5.7%; in assay [5] (read-out: IC50), below 50%. The inhibition at 1000 µM is 1.6% in assay [6] (setting [12]), below 50% in [6] (read-out: IC50), 0% in assay [9] (setting [12]) and below 50% in assay [9] (read-out: IC50). Besides, the IC50 result in assay [3], in assay [4], in [7], in [8], in assay [10] and in assay [11] was “NI (No Inhibition (less than 50% at 1000 μM))” throughout. The “Inhibition % at 1000 μM” value in assay [3] is 0%; in assay [4], 36.1%; in assay [7], 16.6%; in assay [8] it was 3.0%; in [10] it was 12.7%; in [11], 19.8%.
